US8846914B2, “Compositions to effect neuronal growth” (Neuralstem, Inc., priority 2003, dated 2014)

Key:
[1] = system: human hippocampal stem cells; test: Neurogenesis, TuJ1 immunostaining / Hoechst (primary screen); assay type: cell-based
Excerpt: FIG. 2 is a bar graph illustrating an example of a neurogenesis profile of compounds selected from primary screening. After seven days of compound treatment, the cells were stained with the neuron-specific anti-tubulin IIIb antibody. TuJ1, for neurons and Hoechst for all cell nuclei. Shown are the relative ratio of neuron: total cells for each compound over the vehicle control in percentage. Typical ratio for vehicle control is 40-50% neurons. The ratio can change by either increased differentiation of stem cells to neurons, decreased proliferation of astrocytes, or increased proliferation of neuronal progenitors.
FIG. 3 is a bar graph illustrating an example of a neurogenesis profile of compounds selected from primary screening. After seven days of compound treatment, the cells were stained with TuJ1 for neurons. The number of TuJ1+ neurons per area was quantified and expressed as a relative value to the vehicle treated control.
The final neuron number is detected by immunostaining of the culture with antibodies against neurons and is quantified by counting of the immunopositive neurons and/or by measuring the staining intensity. Therefore, after seven days of compound treatment, the cells are stained with the neuron-specific anti-tubulin IIIb antibody, TuJ1, for neurons and Hoechst for all cell nuclei. The number of TuJ1+ neurons per area is quantified and expressed as a value relative to the vehicle-treated control of Hoechst-stained cells. In this regard, the medium is removed from the wells by decanting and blotting the plates on paper towels. The cells are then fixed in 100 μl of 4% paraformaldehyde per well for thirty minutes at room temperature. The cells are washed three times with 400 μl per well of phosphate-buffered saline (PBS) at pH 7.5 for approximately ten minutes per wash. The plates are then stored at 4° C. in PBS or used immediately for staining.
The cells are subsequently stained with antibodies against neuron-specific antigens according to standard procedures. The staining process includes decanting the PBS and blocking the cells with 100 μl of 5% Normal Goat Serum (NGS) in PBS for one hour at room temperature. The NGS/PBS is decanted and the plates are blotted on a paper towel. The cells are then permeabilized with 0.1% Triton X-100 in PBS for 30 minutes at room temperature.
Typical neuron-specific antigens include Type III-beta tubulin and MAP-2c. The total cell number in each well was quantified by staining the cultures with a nuclear dye such as DAPI or Hoechst according to standard procedures. Therefore, once the cells are permeabilized, 20 μl of TuJ1, monoclonal antibody against neuronal class 111 β-tubulin (CoVance (BabCo) MMS-435P) and 32 μl of anti-GFAP polyclonal (DAKO Z0334) are added to and mixed of PBS with 5% NGS. Final dilutions of TuJ1 and anti-GFAP are 1:400 and 1:250, respectively. 90 μl of the antibody solution is added to each well except two eleventh column. 90 μl of PBS/5% NGS is added to the eleventh column and no cells are added to the twelfth column. The plate(s) are sealed with parafilm and incubated at 4° C. overnight.
After incubating the cells overnight, the antibody solution is decanted and 200 μl of PBS/0.1% Triton X-100 is added to the wells. The plate(s) are placed on a shaker and incubated at room temperature with gentle shaking for ten minutes. The cells are again washed with the PBS/Triton X-100 solution another two times.
Following staining with TuJ1 and anti-GFAP, 20 μl of Alexa Fluor 488 labeled goat anti-moose IgG (H+L) (Molecular Probes A-11001) and 100 μl of LRSC-IgG, goat anti-rabbit (Jackson Immune 111-295-144) is added and mixed with 10 ml of PBS/5% NGS. 100 μl of the resulting antibody solution is added to each well. The plate(s) are covered with foil and incubated with gentle shaking for up to one hour at room temperature. The cells are again washed as described above with PBS and an Triton X-100. […]

[2] = system: human hippocampal stem cells; details: positive control; as described in U.S. Ser. No. 10/728,652; cited from earlier work

| Compound | Activity in primary in vitro neurogenesis screen [1] | Increase of the number of neurons and glia [2] |
| --- | --- | --- |
| COc1ccc(C2CNC(=O)C2)cc1OC1CCCC1 (centres unmarked) [Rolipram, reference compound] | effective | – |
| LIF: leukemia inhibitory factor (LIF), a cytokine growth factor, positive control | – | two to three-fold |
